Converted amounts (≈) assume the structure as drawn.
Key:
Becap37 = assay: MTT solid tumor cell proliferation inhibition, Becap37; type: cell-based; settings: Homo sapiens; for inhibition at 16 µg/mL: Becap37, 16 μg/mL compound, 72 h, read-out: IR (inhibition rate); for IC50: Becap37, 72 h, MTT
Description: (§1) Human solid tumor cell lines: Hep-2 (laryngeal carcinoma), A549 (human lung cancer), CaES-17 (esophageal cancer cell), PC-3 (prostate cancer), CNE (nasopharyngeal carcinoma cell), and SK-OV-3 (ovarian cancer cell), all of which are purchased from China Center For Type Culture Collection; RKO (human colon adenocarcinoma cell), MGC 803 (human gastric cancer cell), MG63 (osteosarcoma) and U87 MG (malignant glioma cell), all of which are purchased from Fuxiang Bio-tech Co. Ltd., Shanghai, China; PANC-1 (pancreatic cancer), Hep G2 (human liver cancer cell), Becap37 (human breast cancer cell), and Hela (human cervical cancer cell), all of which are donated by Cancer Research Institute of Zhejiang University, China.
(§2) Obtaining 4000 well-growing human solid tumor cells and inoculating them into wells of a 96-well cell culture plate. The culture medium is DMEM High Glucose cell culture medium containing 10% fetal bovine serum. The plate is placed in a carbon dioxide cell incubator (5% CO2) at 37° C. for 24 hours for incubation. After being added with the amidated oleanolic acid derivatives of different concentrations and mixed uniformly, the plate is placed in a carbon dioxide cell incubator (5% CO2) at 37° C. for 72 hours for incubation. Then the relative number of the living cells is determined by the MTT method. In this experiment, the cell proliferation inhibition rate in control group (not treated with any compound) is set as 0%.

K562/adr = assay: MTT leukemia cell proliferation inhibition, K562/adr; type: cell-based; settings: Homo sapiens, 72 h; for inhibition at 16 µg/mL: 16 μg/mL compound, read-out: IR (inhibition rate); for IC50: MTT
Text: (§3) Leukemia cell lines: leukemia cell lines: K562/adr (drug-resistant, chronic myeloid leukemia, CML), NB4 (acute promyelocytic leukemia, AML), Kasumi-1 (acute myeloid leukemia M2 type, AML-M2), Jurkat (acute lymphoblastic leukemia, ALL), all of which are donated by Cancer Research Institute of Zhejiang University, China; and H9 (acute lymphoblastic leukemia, ALL), which is purchased from China Center for Type Culture Collection (CCTCC).
(§4) Reagents: The standard sample of oleanolic acid (OA) is purchased from Hua Kang Pharmaceutical Raw Material Factory, Shifang City, Sichuan, China; and the amidated oleanolic acid derivatives are prepared according to the present invention.
(§5) Obtaining 6000 well-growing leukemia cells and inoculating them into wells of a 96-well cell culture plate. The culture medium is the 1640 cell culture medium containing 10% fetal bovine serum. After adding the amidated oleanolic acid derivatives of different concentrations and mixing uniformly, placing the plate in a carbon dioxide cell incubator (5% CO2) at 37° C. and incubated for 72 hours. Then the relative number of viable cells is determined by the MTT method. In this experiment, the cell proliferation inhibition rate in control group (not treated with any compound) is set as 0%.

MGC803 = assay: MTT solid tumor cell proliferation inhibition, MGC803; type: cell-based, human; settings: for inhibition at 16 µg/mL / IC50: Homo sapiens, MGC-803; for inhibition at 16 µg/mL: MGC803, 16 μg/mL compound, 72 h, read-out: IR (inhibition rate); for IC50: MGC803, 72 h, MTT
Description: as §1, §2

PC-3 = assay: MTT solid tumor cell proliferation inhibition, PC-3; type: cell-based, human; settings: for inhibition at 16 µg/mL / IC50: Homo sapiens; for inhibition at 16 µg/mL: PC-3, 16 μg/mL compound, 72 h, read-out: IR (inhibition rate); for IC50: PC-3, 72 h, MTT
Description: as §1, §2

CaES-17 = assay: MTT solid tumor cell proliferation inhibition, CaES-17; type: cell-based, human; settings: Homo sapiens, CaEs17; for inhibition at 16 µg/mL: CaES-17, 16 μg/mL compound, 72 h, read-out: IR (inhibition rate); for IC50: CaES-17, 72 h, MTT
Description: as §1, §2

NB4 = assay: MTT leukemia cell proliferation inhibition, NB4; type: cell-based; settings: Homo sapiens, NB-4; for inhibition at 16 µg/mL: NB4, 16 μg/mL compound, 72 h, read-out: IR (inhibition rate); for IC50: NB4, 72 h, MTT
Text: as §3, §4, §5

RKO = assay: MTT solid tumor cell proliferation inhibition, RKO; type: cell-based; settings: Homo sapiens, 72 h; for inhibition at 16 µg/mL: 16 μg/mL compound, read-out: IR (inhibition rate); for IC50: MTT
Description: as §1, §2

Hep-2 = assay: MTT solid tumor cell proliferation inhibition, Hep-2; type: cell-based, human; settings: Homo sapiens; for inhibition at 16 µg/mL: Hep-2, 16 μg/mL compound, 72 h, read-out: IR (inhibition rate); for IC50: Hep-2, 72 h, MTT
Description: as §1, §2

RPMI8226 = assay: MTT multiple myeloma cell proliferation inhibition, RPMI8226; type: cell-based; settings: Homo sapiens, RPMI-8226; for inhibition at 16 µg/mL: RPMI8226, 16 μg/mL compound, 72 h, read-out: IR (inhibition rate); for IC50: RPMI8226, 72 h, MTT
Description: Multiple myeloma cell lines: RPMI8226 (multiple myeloma), purchased from Fuxiang Bio-tech Co. Ltd., Shanghai, China.
as §5

Jurkat = assay: MTT leukemia cell proliferation inhibition, Jurkat; type: cell-based; settings: Homo sapiens, 72 h; for inhibition at 16 µg/mL: 16 μg/mL compound, read-out: IR (inhibition rate); for IC50: MTT
Text: as §3, §4, §5

Kasumi-1 = assay: MTT leukemia cell proliferation inhibition, Kasumi-1; type: cell-based; settings: Homo sapiens; for inhibition at 16 µg/mL: Kasumi-1, 16 μg/mL compound, 72 h, read-out: IR (inhibition rate); for IC50: Kasumi-1, 72 h, MTT
Text: as §3, §4, §5

PANC-1 = assay: MTT solid tumor cell proliferation inhibition, PANC-1; type: cell-based, human; settings: for inhibition at 16 µg/mL / IC50: Homo sapiens; for inhibition at 16 µg/mL: PANC-1, 16 μg/mL compound, 72 h, read-out: IR (inhibition rate); for IC50: PANC-1, 72 h, MTT
Description: as §1, §2

H9 = assay: MTT leukemia cell proliferation inhibition, H9; type: cell-based, human; settings: for improvement of cell inhibition rate as compared with oleanolic acid: H9 cells; for inhibition at 16 µg/mL / IC50: Homo sapiens; for inhibition at 16 µg/mL: H9, 16 μg/mL compound, 72 h, read-out: IR (inhibition rate); for IC50: H9, 72 h, MTT
Text: as §3, §4, §5

SK-OV-3 = assay: MTT solid tumor cell proliferation inhibition, SK-OV-3; type: cell-based, human; settings: for inhibition at 16 µg/mL / IC50: Homo sapiens; for inhibition at 16 µg/mL: SK-OV-3, 16 μg/mL compound, 72 h, read-out: IR (inhibition rate); for IC50: SK-OV-3, 72 h, MTT
Description: as §1, §2

Hep G2 = assay: MTT solid tumor cell proliferation inhibition, Hep G2; type: cell-based; settings: Homo sapiens, HepG2; for inhibition at 16 µg/mL: Hep G2, 16 μg/mL compound, 72 h, read-out: IR (inhibition rate); for IC50: Hep G2, 72 h, MTT
Description: as §1, §2

Hela = assay: MTT solid tumor cell proliferation inhibition, Hela; type: cell-based, human; settings: for inhibition at 16 µg/mL / IC50: Homo sapiens, Hela, 72 h; for inhibition at 16 µg/mL: 16 μg/mL compound, read-out: IR (inhibition rate); for IC50: MTT
Description: as §1, §2

U87 MG = assay: MTT solid tumor cell proliferation inhibition, U87 MG; type: cell-based, human; settings: Homo sapiens, U-87 MG, U87 MG, 72 h; for inhibition at 16 µg/mL: 16 μg/mL compound, read-out: IR (inhibition rate); for IC50: MTT
Description: as §1, §2

CNE = assay: MTT solid tumor cell proliferation inhibition, CNE; type: cell-based, human; settings: for inhibition at 16 µg/mL / IC50: Homo sapiens, CNE, 72 h; for inhibition at 16 µg/mL: 16 μg/mL compound, read-out: IR (inhibition rate); for IC50: MTT
Description: as §1, §2

A549 = assay: MTT solid tumor cell proliferation inhibition, A549; type: cell-based, human; settings: Homo sapiens; for inhibition at 16 µg/mL: A549, 16 μg/mL compound, 72 h, read-out: IR (inhibition rate); for IC50: A549, 72 h, MTT
Description: as §1, §2

MG 63 = assay: MTT solid tumor cell proliferation inhibition, MG 63; type: cell-based, human; settings: for IC50: Homo sapiens, MG 63, 72 h, MTT; for IR (inhibition rate): MG 63, 16 μg/mL compound, 72 h
Description: as §1, §2

## CC1(C)CC[C@]2(NC(=O)c3cccnc3Cl)CC[C@]3(C)C(=CC[C@@H]4[C@@]5(C)CC[C@H](O)C(C)(C)[C@@H]5CC[C@]43C)[C@@H]2C1 [BS-OA-096]
Becap37
  inhibition at 16 µg/mL: 39.3%
  IC50: > 16 µg/mL
K562/adr
  inhibition at 16 µg/mL: 81.9%
  IC50: 8.53 µg/mL (≈ 15 µM)
MGC803
  inhibition at 16 µg/mL: 70%
  IC50: 13.6 µg/mL (≈ 23.9 µM)
MGC803; MGC803 cells
  improvement of inhibition rate as compared with oleanolic acid: ~3 fold
PC-3
  inhibition at 16 µg/mL: 48.1%
  IC50: 18.3 µg/mL (≈ 32.2 µM)
CaES-17
  inhibition at 16 µg/mL: 39.8%
  IC50: > 16 µg/mL
NB4
  inhibition at 16 µg/mL: 100%
  IC50: 11.2 µg/mL (≈ 19.7 µM)
RKO
  inhibition at 16 µg/mL: 59.4%
  IC50: 14.7 µg/mL (≈ 26 µM)
Hep-2
  inhibition at 16 µg/mL: 20.6%
  IC50: > 16 µg/mL
RPMI8226
  inhibition at 16 µg/mL: 96.9%
  IC50: 9.2 µg/mL (≈ 16.2 µM)
Jurkat
  inhibition at 16 µg/mL: 55.3%
  IC50: 15.3 µg/mL (≈ 27 µM)
Kasumi-1
  inhibition at 16 µg/mL: 33.6%
  IC50: > 16 µg/mL
PANC-1
  inhibition at 16 µg/mL: 59.1%
  IC50: 14.7 µg/mL (≈ 25.9 µM)
PANC-1; PANC-1 cells
  improvement of inhibition rate as compared with oleanolic acid: ~7 fold
H9
  improvement of cell inhibition rate as compared with oleanolic acid: ~4 fold
  inhibition at 16 µg/mL: 84%
  IC50: 10.7 µg/mL (≈ 18.9 µM)
SK-OV-3
  inhibition at 16 µg/mL: 97%
  IC50: 10.1 µg/mL (≈ 17.8 µM)
SK-OV-3; SKOV-3 cells
  improvement of cell inhibition rate as compared with oleanolic acid: > 12 fold
Hep G2
  inhibition at 16 µg/mL: 40.1%
  IC50: 18.5 µg/mL (≈ 32.6 µM)
Hela; Hela cells
  improvement of inhibition rate as compared with oleanolic acid: ~4 fold
Hela
  inhibition at 16 µg/mL: 88.9%
  IC50: 9.43 µg/mL (≈ 16.6 µM)
U87 MG
  inhibition at 16 µg/mL: 38.5%
  IC50: > 16 µg/mL
CNE; CNE cells
  improvement of inhibition rate as compared with oleanolic acid: ~2 fold
CNE
  inhibition at 16 µg/mL: 63.9%
  IC50: 14 µg/mL (≈ 24.7 µM)
A549
  inhibition at 16 µg/mL: 18.7%
  IC50: > 16 µg/mL
MG 63
  IC50: 13.8 µg/mL (≈ 24.3 µM)
  IR (inhibition rate): 78.1%

## CC1(C)CC[C@]2(NC(=O)C3CC3)CC[C@]3(C)C(=CC[C@@H]4[C@@]5(C)CC[C@H](O)C(C)(C)[C@@H]5CC[C@]43C)[C@@H]2C1 [BS-OA-097]
Becap37
  inhibition at 16 µg/mL: 41.3%
  IC50: > 16 µg/mL
K562/adr
  inhibition at 16 µg/mL: 91.3%
  IC50: 2.4 µg/mL (≈ 4.84 µM)
MGC803
  inhibition at 16 µg/mL: 56.1%
  IC50: 14.4 µg/mL (≈ 29 µM)
PC-3
  inhibition at 16 µg/mL: 56.6%
  IC50: 13.1 µg/mL (≈ 26.3 µM)
PC-3; PC-3 cells
  improvement of cell inhibition rate as compared with oleanolic acid: ~2 fold
CaES-17
  inhibition at 16 µg/mL: 45.7%
  IC50: 18.9 µg/mL (≈ 38.1 µM)
NB4
  inhibition at 16 µg/mL: 93.4%
  IC50: 6.51 µg/mL (≈ 13.1 µM)
RKO
  inhibition at 16 µg/mL: 29%
  IC50: > 16 µg/mL
Hep-2
  inhibition at 16 µg/mL: 28.5%
  IC50: > 16 µg/mL
RPMI8226
  inhibition at 16 µg/mL: 95.3%
  IC50: 3.51 µg/mL (≈ 7.08 µM)
Jurkat
  inhibition at 16 µg/mL: 56.6%
  IC50: 14.3 µg/mL (≈ 28.9 µM)
Kasumi-1
  inhibition at 16 µg/mL: 42.9%
  IC50: > 16 µg/mL
PANC-1
  inhibition at 16 µg/mL: 38.8%
  IC50: > 16 µg/mL
H9
  improvement of cell inhibition rate as compared with oleanolic acid: ~4 fold
  inhibition at 16 µg/mL: 85.3%
  IC50: 6.3 µg/mL (≈ 12.7 µM)
SK-OV-3
  inhibition at 16 µg/mL: 68.9%
  IC50: 7.63 µg/mL (≈ 15.4 µM)
Hep G2
  inhibition at 16 µg/mL: 35.1%
  IC50: > 16 µg/mL
Hela
  inhibition at 16 µg/mL: 64.4%
  IC50: 11.9 µg/mL (≈ 24 µM)
U87 MG
  inhibition at 16 µg/mL: 37.4%
  IC50: > 16 µg/mL
CNE
  inhibition at 16 µg/mL: 40%
  IC50: > 16 µg/mL
A549
  inhibition at 16 µg/mL: 38.1%
  IC50: > 16 µg/mL
MG 63
  IC50: 13.2 µg/mL (≈ 26.5 µM)
  IR (inhibition rate): 78.6%

— US8987502B2, “Oleanolic acid amidate derivatives, preparation methods and uses thereof” (Hangzhou Bensheng Pharmaceutical Co., Ltd., priority 2011, dated 2015)
